Source: ChEMBL document CHEMBL5338769, “Discovery of Norisoboldine Analogue III11 as a Novel and Potent Aryl Hydrocarbon Receptor Agonist for the Treatment of Ulcerative Colitis” (J Med Chem, 2023)
The source made the active and inactive calls. The calls are words filed in the database; no cut-off is given here.

Experiments:
[1] = Protein binding in rat plasma at 21.67 ug/ml of total concentration measured after 12 hrs by ultrafiltration based HPLC analysis; assay type: ADME, cell-free; conditions: at 21.67 µg/mL, read-out: PPB (converted)
Mus musculus [2] = test: Anti-colitis activity against DSS-induced ulcerative colitis C57BL/6 mouse model assessed as increase in Foxp3 mRNA level by measuring fold change at 10 mg/kg, po administered once a day for 10 days by qRT-PCR analysis; assay type: functional; conditions: time 10 day
Mus musculus [3] = test: Anti-colitis activity in DSS-induced ulcerative colitis C57BL/6 mouse model assessed as decrease in IL-17 expression at 20 mg/kg, po administered once a day for 10 days by qRT-PCR analysis; assay type: functional; parameters: scale not given: the % may be the effect or the level left; conditions: time 10 day
[4] = Unbound drug concentration in rat plasma at 48.02 ug/ml of total concentration measured after 12 hrs by ultrafiltration based HPLC analysis; assay type: ADME, cell-free; conditions: dose 48.02 µg/ml
[5] = Upregulation of GATA3 expression level in DSS-induced ulcerative colitis C57BL/6 mouse model assessed as fold change at 20 mg/kg, po administered once a day for 10 days by qRT-PCR analysis; assay type: functional; conditions: time 10 day
Mus musculus [6] = test: Anti-colitis activity against DSS-induced ulcerative colitis C57BL/6 mouse model assessed as recovery of colon length at 20 mg/kg, po administered once a day for 10 days; assay type: functional, organism-based; conditions: time 10.0 day
Mus musculus [7] = test: Anti-colitis activity in DSS-induced ulcerative colitis C57BL/6 mouse model assessed as CD4+CD25+Foxp3+ Treg cell percentage in spleen at 20 mg/kg, po administered once a day for 10 days by flow cytometric analysis (reference value: 3.3%); assay type: functional; conditions: time 10 day
[8] = target: T1, Aryl hydrocarbon receptor (Mus musculus, UniProt P30561); test: Activation of AhR transcription in C57BL/6 mouse naive T cells assessed as increase in AhRR mRNA expression at 1 to 3 uM by qRT-PCR analysis; assay type: cell-based; conditions: t cell, dose 1-3 µM
T1 sequence (P30561 whole entry): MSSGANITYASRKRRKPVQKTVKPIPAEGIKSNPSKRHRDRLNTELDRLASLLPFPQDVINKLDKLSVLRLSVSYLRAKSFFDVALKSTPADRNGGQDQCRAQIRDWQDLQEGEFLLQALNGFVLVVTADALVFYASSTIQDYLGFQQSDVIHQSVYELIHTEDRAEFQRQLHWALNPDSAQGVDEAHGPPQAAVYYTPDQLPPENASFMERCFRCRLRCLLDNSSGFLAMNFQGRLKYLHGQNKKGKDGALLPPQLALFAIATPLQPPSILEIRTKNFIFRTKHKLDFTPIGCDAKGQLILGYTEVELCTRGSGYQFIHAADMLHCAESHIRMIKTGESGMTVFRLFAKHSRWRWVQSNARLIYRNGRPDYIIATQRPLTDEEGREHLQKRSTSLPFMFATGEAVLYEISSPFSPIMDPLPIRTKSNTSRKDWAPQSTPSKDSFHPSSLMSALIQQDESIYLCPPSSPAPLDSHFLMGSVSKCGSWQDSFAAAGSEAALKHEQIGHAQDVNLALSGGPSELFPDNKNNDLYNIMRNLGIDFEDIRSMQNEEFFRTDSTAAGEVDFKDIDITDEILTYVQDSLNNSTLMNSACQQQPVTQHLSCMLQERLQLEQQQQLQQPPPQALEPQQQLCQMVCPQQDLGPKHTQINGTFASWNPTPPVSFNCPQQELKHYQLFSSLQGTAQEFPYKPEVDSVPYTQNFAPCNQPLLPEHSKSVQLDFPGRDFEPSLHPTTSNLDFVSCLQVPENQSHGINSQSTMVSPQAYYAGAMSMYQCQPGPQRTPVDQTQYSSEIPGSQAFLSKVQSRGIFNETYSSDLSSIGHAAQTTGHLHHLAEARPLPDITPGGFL

[9] = target: T1, Aryl hydrocarbon receptor; test: Binding affinity to AhR in mouse EL4 cells assessed as thermal stabilization at 3 uM at 37 to 67 degreeC incubated for 24 hrs thermal shift assay based Western blot analysis; assay type: cell-based; conditions: el4, 24 h

## COc1cc2c3c(c1)-c1ccc(O)cc1CC3NCC2 (centres undefined)
[1]
  fraction unbound at 12 h, 21.67 ug/ml: 0.149
Mus musculus [2]
  fold change (FC): 1.88
Mus musculus [3]
  Activity: 86.96%
[4]
  Cp(f): 6.67 µg/mL
[5]
  fold change (FC): 1.14
Mus musculus [6]
  Activity: Active
Mus musculus [7]
  Activity: 4%
[8]
  Activity: Active
[9]
  Activity: Active
